# Test results reported in patent US20180282662A1, “Process” (GIVAUDAN SA, priority 2014, published 2018).
# Read-outs that look alike come from different tables or passages of the source.
# Tests used:
# [1] = Susceptibility to enzymatic degradation to the benzoic acid derivative; assay type: in vitro ADME
# guinea-pigs = settings: guinea pig, in vivo; cited from earlier work
# [2] = tested on: reproductive organs of dogs; settings: dog, in vivo; cited from earlier work
# [3] = rats; cited from earlier work
# [4] = dogs; cited from earlier work
# primates = settings: cited from earlier work
# [5] = tested on: reproductive organs of male rats; settings: rat, in vivo; cited from earlier work
# mice = settings: mouse, in vivo; cited from earlier work
# fatty acid synthesis = settings: in vitro; cited from earlier work
# male rats = settings: cited from earlier work
# glucose synthesis = settings: in vitro; cited from earlier work
structure (smiles),measurement,setting,value
"Cc1cc(CC(C)C)ccc1CCC=O [(I), 3-(4-Isobutyl-2-methylphenyl)propanal]",enzymatic degradation to its benzoic acid derivative,[1],not susceptible
"CC(C=O)Cc1ccc(C(C)(C)C)cc1 (centres unmarked) [Lilial, 3-(4-tert-butylphenyl)-2-methylpropanal]",toxic effects,guinea-pigs,No effects
same,toxic effects on the reproductive organs,[2],toxic effects
same,enzymatic degradation to tert-butyl benzoic acid (t-BBA),[3],enzymatically degraded
same,enzymatic degradation to tert-butyl benzoic acid (t-BBA),[4],enzymatically degraded
same,toxic effects,primates,No effects
same,toxic effects on the reproductive organs,[5],toxic effects
same,toxic effects,mice,No effects
CC(C)(C)c1ccc(C(=O)O)cc1 [tert-butyl benzoic acid],inhibition of fatty acid synthesis,fatty acid synthesis,inhibit
same,testicular effects,male rats,testicular effects
same,inhibition of glucose synthesis,glucose synthesis,inhibit
